Usually IC50 stands for the point on the concentration scale where inhibition reaches its midpoint. High values mean lower potency, low ones higher potency.

The results in this text go back to patent publication US7247734B2 (Vernalis (Cambridge) Limited, priority 2001, dated 2007).

In one assay the test system is HCT116 cells. The assay can be described thus: Cellular protein by BCA assay after compound exposure (ELISA plates). Format: cell-based, human. The following applies: for Cellular Protein (% DMSO controls): HCT116, 10 μM compound. Here is the method: Incubate at 37° for 30 min. • (6) Wash plates twice in PBS using an automated washer (Wellwash 5000 ten plate stacker-washer or Wellwash Ascent single plate washer, Thermo Labsystems, Basingstoke, UK). • (7) Block the plates by addition of blocking solution (100 μl) and incubate for 30 min. • (8) Add 100 μl primary antibody diluted to 0.95 μg/ml in PBS to each well and incubate plate for 1.5 h. Wash plates once with DELFIA® wash solution. • (9) Add 100 μl Europium labelled anti-mouse IgG diluted in DELFIA® assay buffer to 75 ng/ml and incubate for 1 hour. Wash plates once with DELFIA® wash solution as before. • (10) Add 100 μl DELFIA® enhancement solution to each well. • (11) Measure the fluorescence (615 nm) in Victor 2 1420 multilabel counter (Perkin Elmer Life Sciences, Milton Keynes, UK) using time-resolved measurement mode. • (12) Wash plates once with PBS and measure protein concentration by the addition of 200 μl BCA reagent to each well, shake for 1–2 min and incubate for 30 mins at 37° C. Read absorption at 570 nm. • (13) Express ELISA results by normalising to protein in the well (Eu counts (cpm) divided by OD@ 570 nm). Compare the effect of HSP90 inhibitors on HSP70 expression with DMSO treated controls. Comments • (1) Cells plated into 96 well plates are incubated in a plastic box to reduce evaporation from the outside wells. In addition, ELISA incubation steps are carried out in a 37° C. laboratory incubator and in a moist environment e.g., plastic box lined with damp tissue paper. • (2) All additions to the microtitre plate can be achieved using a multichannel pipette or for larger numbers of plates an automated dispenser such as a Multidrop (Thermo Labsytems, Basingstoke, UK). • (3) For convenience, if the effects of compounds are being studied at several time points the ELISA can be carried out in batches, plates being stored (in a container) at 4° C. following the fixation step. In this case the plates are washed only once following fixation and again immediately before the first ELISA step (step 6 above). In addition all the plates can be stored for subsequent protein estimation. • (4) Reproducibility of both the measured Europium counts and the protein measurements was between 10–15% (CV). • (5) DELFIA® reagents (see, e.g., Hemmila and Webb, 1997) have been routinely used in cell-based ELISAs. This endpoint provides high sensitivity and the time-resolved measurements reduce interference from non-specific fluorescence. However, it is also possible to use a horse radish peroxidase second antibody conjugate and either a calorimetric (e.g., tetramethylbenzidine) or chemiluminescent reagent (e.g., ECL reagent (Amersham Pharmacia Biotech, Little Chalfont, Bucks, UK) for endpoint measurement. • (6) It is recommended that a blank consisting of second-antibody only (i.e., no first antibody) together with an appropriate first antibody control (e.g., isotype matched IgG) are included in assays during the process of optimising reagent concentrations. Growth Inhibition Assay
The effect of various compounds of the present invention on the expression of the molecular marker HSP70 was determined using the cell-based ELISA and a specific monoclonal antibody to HSP70 in HCT116 cells, as described above. Cellular protein following compound exposure was determined using BCA assay as described in the method.

For assay [1], the system named is HCT116 human colon tumour cells. As to the kind of experiment: 96 h growth inhibition assay (SRB), HCT116. Format: cell-based. The following applies: Homo sapiens, HCT-116; HCT116, 96 h. How it is done:
The growth inhibition assay employed was based on that described previously (Kelland et al., 1993). HCT116 and HT29 human colon tumour cells (American Tissue Culture Collection) were seeded into 96-well tissue culture plates (approximately 1600–2000 cells per well) and allowed to attach for 36 hours. Eight wells were treated with a single concentration from a range of compound concentrations and incubated for 96 hours. Cells were fixed using ice cold 10% trichloroacetic acid (TCA). Plates were then washed five times with water, air dried, and stained with 0.4% sulphorhodamine B (SRB) in 1% acetic acid for 10 minutes. The SRB stain was solubilised in 10 mM Tris-HCl and the absorbance measured at 540 nm using a Titertek Multiscan MCC/340 MKII plate reader (Flow Laboratories, IEC, Basingstoke, N.H.). The absorbance values correspond to total protein content and are used as a measure of cell growth.

For the compound `CCc1cc(-c2n[nH]c(C)c2-c2ccc3c(c2)OCCO3)c(O)cc1O` [CCT018159, 4-[4-(2,3-Dihydro-benzo[1,4]dioxin-6-yl)-5-methyl-1H-pyrazol-3-yl]-6-ethyl-benzene-1,3-diol], the “cellular protein measured by BCA, reduction of DMSO controls” value in the assay on HCT116 cells (HCT116, 10 μM) was 50–80%. Also, the “Cellular Protein (% DMSO controls)” value is recorded as 50.0% with HCT116 cells ((48 h)) and 20.8% with HCT116 cells ((time not given)). Also, in assay [1], half-maximal inhibition (IC50) required 4.5 µM.

Consider `Cc1[nH]nc(-c2ccc(O)cc2O)c1-c1ccc2c(c1)OCCO2` [CCT018157], for which the “Cellular Protein (% DMSO controls)” value is on record as 91.3% in the assay with HCT116 cells ((48 h)) and 21.2% in the assay on HCT116 cells ((time not given)). Besides, half-maximal inhibition in assay [1] (IC50) was put at 26 µM.
